{"source": "PubChem BioAssay (NCI)", "experiment_in_all_cases": "DTP human tumour cell line panel, 48 h", "key": {"COLO 205 colon": {"tested_on": "COLO 205 colon"}, "U251 CNS": {"tested_on": "U251 CNS"}, "SR leukemia": {"tested_on": "SR leukemia"}, "IGROV1 ovarian": {"tested_on": "IGROV1 ovarian"}, "ACHN renal": {"tested_on": "ACHN renal"}, "UO-31 renal": {"tested_on": "UO-31 renal"}, "CAKI-1 renal": {"tested_on": "CAKI-1 renal"}, "HCT-15 colon": {"tested_on": "HCT-15 colon"}, "SK-MEL-5 melanoma": {"tested_on": "SK-MEL-5 melanoma"}, "UACC-62 melanoma": {"tested_on": "UACC-62 melanoma"}, "NCI-H226 lung": {"tested_on": "NCI-H226 lung"}, "MDA-MB-468 breast": {"tested_on": "MDA-MB-468 breast"}, "NCI-H522 lung": {"tested_on": "NCI-H522 lung"}, "A498 renal": {"tested_on": "A498 renal"}, "A549 NSCLC": {"tested_on": "A549 NSCLC"}, "OVCAR-3 ovarian": {"tested_on": "OVCAR-3 ovarian"}, "SF-295 CNS": {"tested_on": "SF-295 CNS"}, "OVCAR-8 ovarian": {"tested_on": "OVCAR-8 ovarian"}, "T-47D breast": {"tested_on": "T-47D breast"}, "BT-549 breast": {"tested_on": "BT-549 breast"}, "MDA-MB-435": {"tested_on": "MDA-MB-435"}, "OVCAR-4 ovarian": {"tested_on": "OVCAR-4 ovarian"}, "UACC-257 melanoma": {"tested_on": "UACC-257 melanoma"}, "SNB-19 CNS": {"tested_on": "SNB-19 CNS"}, "MALME-3M melanoma": {"tested_on": "MALME-3M melanoma"}, "SF-268 CNS": {"tested_on": "SF-268 CNS"}, "CCRF-CEM leukemia": {"tested_on": "CCRF-CEM leukemia"}, "RPMI-8226 leukemia": {"tested_on": "RPMI-8226 leukemia"}, "NCI-H23 lung": {"tested_on": "NCI-H23 lung"}, "KM12 colon": {"tested_on": "KM12 colon"}}, "note": "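Values below derive from 48-hour exposures of cells grown in 96-well plates, with endpoints linearly interpolated between the two concentrations bracketing the appropriate inhibition level. At the GI50, growth is halved. TGI is the concentration that stops growth completely.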"}
{"smiles": "CCOc1ccccc1[C@H]1C(C(=O)c2ccc(Cl)cc2)C2(N[C@@H]1c1ccccc1)C(=O)Nc1ccc(Cl)cc12", "note": "(some centres undefined)", "values": [{"measurement": "TGI", "setting": "COLO 205 colon", "value": "> 18.8", "unit": "µM"}, {"measurement": "GI50", "setting": "U251 CNS", "value": "> 18.8", "unit": "µM"}, {"measurement": "TGI", "setting": "U251 CNS", "value": "> 18.8", "unit": "µM"}, {"measurement": "GI50", "setting": "SR leukemia", "value": 5.28, "unit": "µM"}, {"measurement": "TGI", "setting": "SR leukemia", "value": "> 18.8", "unit": "µM"}, {"measurement": "GI50", "setting": "IGROV1 ovarian", "value": 7.98, "unit": "µM"}, {"measurement": "TGI", "setting": "IGROV1 ovarian", "value": "> 18.8", "unit": "µM"}, {"measurement": "GI50", "setting": "ACHN renal", "value": 8.05, "unit": "µM"}, {"measurement": "TGI", "setting": "ACHN renal", "value": "> 18.8", "unit": "µM"}, {"measurement": "GI50", "setting": "UO-31 renal", "value": 5.3, "unit": "µM"}, {"measurement": "TGI", "setting": "UO-31 renal", "value": "> 18.8", "unit": "µM"}, {"measurement": "GI50", "setting": "CAKI-1 renal", "value": 4.11, "unit": "µM"}, {"measurement": "TGI", "setting": "CAKI-1 renal", "value": "> 18.8", "unit": "µM"}, {"measurement": "GI50", "setting": "HCT-15 colon", "value": 13.8, "unit": "µM"}, {"measurement": "TGI", "setting": "HCT-15 colon", "value": "> 18.8", "unit": "µM"}, {"measurement": "GI50", "setting": "SK-MEL-5 melanoma", "value": "> 18.8", "unit": "µM"}, {"measurement": "TGI", "setting": "SK-MEL-5 melanoma", "value": "> 18.8", "unit": "µM"}, {"measurement": "GI50", "setting": "UACC-62 melanoma", "value": 3.93, "unit": "µM"}, {"measurement": "TGI", "setting": "UACC-62 melanoma", "value": "> 18.8", "unit": "µM"}, {"measurement": "GI50", "setting": "NCI-H226 lung", "value": "> 18.8", "unit": "µM"}, {"measurement": "TGI", "setting": "NCI-H226 lung", "value": "> 18.8", "unit": "µM"}, {"measurement": "GI50", "setting": "MDA-MB-468 breast", "value": 4.84, "unit": "µM"}, {"measurement": "TGI", "setting": "MDA-MB-468 breast", "value": "> 18.8", "unit": "µM"}, {"measurement": "GI50", "setting": "NCI-H522 lung", "value": 8.03, "unit": "µM"}, {"measurement": "TGI", "setting": "NCI-H522 lung", "value": "> 18.8", "unit": "µM"}, {"measurement": "GI50", "setting": "A498 renal", "value": "> 18.8", "unit": "µM"}, {"measurement": "TGI", "setting": "A498 renal", "value": "> 18.8", "unit": "µM"}, {"measurement": "GI50", "setting": "A549 NSCLC", "value": 8.86, "unit": "µM"}, {"measurement": "TGI", "setting": "A549 NSCLC", "value": "> 18.8", "unit": "µM"}, {"measurement": "GI50", "setting": "OVCAR-3 ovarian", "value": 7.8, "unit": "µM"}, {"measurement": "TGI", "setting": "OVCAR-3 ovarian", "value": "> 18.8", "unit": "µM"}, {"measurement": "GI50", "setting": "SF-295 CNS", "value": 7.53, "unit": "µM"}, {"measurement": "TGI", "setting": "SF-295 CNS", "value": "> 18.8", "unit": "µM"}, {"measurement": "GI50", "setting": "OVCAR-8 ovarian", "value": 18.3, "unit": "µM"}, {"measurement": "TGI", "setting": "OVCAR-8 ovarian", "value": "> 18.8", "unit": "µM"}, {"measurement": "GI50", "setting": "T-47D breast", "value": 7.73, "unit": "µM"}, {"measurement": "TGI", "setting": "T-47D breast", "value": "> 18.8", "unit": "µM"}, {"measurement": "GI50", "setting": "BT-549 breast", "value": "> 18.8", "unit": "µM"}, {"measurement": "TGI", "setting": "BT-549 breast", "value": "> 18.8", "unit": "µM"}, {"measurement": "GI50", "setting": "MDA-MB-435", "value": 13.9, "unit": "µM"}, {"measurement": "TGI", "setting": "MDA-MB-435", "value": "> 18.8", "unit": "µM"}, {"measurement": "GI50", "setting": "OVCAR-4 ovarian", "value": "> 18.8", "unit": "µM"}, {"measurement": "TGI", "setting": "OVCAR-4 ovarian", "value": "> 18.8", "unit": "µM"}, {"measurement": "GI50", "setting": "UACC-257 melanoma", "value": 8.85, "unit": "µM"}, {"measurement": "TGI", "setting": "UACC-257 melanoma", "value": "> 18.8", "unit": "µM"}, {"measurement": "GI50", "setting": "SNB-19 CNS", "value": "> 18.8", "unit": "µM"}, {"measurement": "TGI", "setting": "SNB-19 CNS", "value": "> 18.8", "unit": "µM"}, {"measurement": "GI50", "setting": "MALME-3M melanoma", "value": "> 18.8", "unit": "µM"}, {"measurement": "TGI", "setting": "MALME-3M melanoma", "value": "> 18.8", "unit": "µM"}, {"measurement": "GI50", "setting": "SF-268 CNS", "value": 10.5, "unit": "µM"}, {"measurement": "TGI", "setting": "SF-268 CNS", "value": "> 18.8", "unit": "µM"}, {"measurement": "GI50", "setting": "CCRF-CEM leukemia", "value": 11.4, "unit": "µM"}, {"measurement": "TGI", "setting": "CCRF-CEM leukemia", "value": "> 18.8", "unit": "µM"}, {"measurement": "GI50", "setting": "RPMI-8226 leukemia", "value": 10.6, "unit": "µM"}, {"measurement": "TGI", "setting": "RPMI-8226 leukemia", "value": "> 18.8", "unit": "µM"}, {"measurement": "GI50", "setting": "NCI-H23 lung", "value": 17.3, "unit": "µM"}, {"measurement": "TGI", "setting": "NCI-H23 lung", "value": "> 18.8", "unit": "µM"}, {"measurement": "GI50", "setting": "KM12 colon", "value": 9.75, "unit": "µM"}, {"measurement": "TGI", "setting": "KM12 colon", "value": "> 18.8", "unit": "µM"}]}
